Reference: patent US20130231366A1, “Use of a Novel Alpha-7 Nachr Antagonist to Suppress Pathogenic Signal Transduction in Cancer and Aids” (UNIVERSITY OF KENTUCKY RESEARCH FOUNDATION, priority 2008, published 2013)
Read-outs that look alike come from different tables or passages of the source. Values belong to the compound of their own block, whether it stands above or below them.

Columns and labels:
Assay type in all cases: cell-based
[1] = tested on: Type II cells in rat medial septum; assay: Patch-clamp recording of ACh-evoked responses of medial septal neurons, Type II cells
Description: (§1) All procedures involving rats were approved by the University of Florida IACUC and were in accord with the NIH Guide for the Care and Use of Laboratory Animals. Male Sprague Dawley rats (post-natal day 12-25) were anesthetized with Halothane (Halocarbon Laboratories, River Edge N.J.) and swiftly decapitated. Transverse ([…]) whole brain slices were prepared using a vibratome (Pelco, Redding, Calif.) and then placed in a high Mg^2+/low Ca^2+ ice-cold artificial cerebral spinal fluid (ACSF) containing (in mM) 124 NaCl, 2.5 KCl, 1.2 NaH2PO4, 2.5 MgSO4, 10 D-glucose, 1 CaCl2, and 25.9 NaHCO3, saturated with 95% O2-5% CO2. Slices were incubated at 30° C. for 30 minutes and then left at room temperature until they were transferred to a submersion chamber (Warner Instruments, Hamden, Conn.) for recording. During experiments, slices were perfused at a rate of 2 ml/min with normal ACSF containing (in mM) 126 NaCl, 3 KCl, 1.2 NaH2PO4, 1.5 MgSO4, 11 D-glucose, 2.4 CaCl2, 25.9 NaHCO3, and 0.004 atropine sulfate, saturated with 95% 02-5% CO2 at 30° C. Cells were visualized with infrared differential interference contrast microscopy using a Nikon E600FN microscope. Patch-clamp recording pipettes were pulled from borosilicate glass (Sutter Instruments, Novato, Calif.) using a Flaming/Brown micropipette puller (P-97; Sutter Instruments, Novato, Calif.). Recording pipettes were filled with an internal solution of (in mM) 125K-gluconate, 1 KCl, 0.1 CaCl2, 2 MgCl2, 1 EGTA, 2 MgATP, 0.3 Na3GTP, and 10 HEPES (pH adjusted to 7.3 with KOH). The resistance of the recording pipette when filled with the internal solution was 3-5 MΩ. Cells were held at −70 mV, and a −10 in V/10 ms test pulse was used to determine access resistance, input resistance, and whole-cell capacitance. Cells with access resistances >60 MΩ or those requiring holding currents >200 pA were not included in the final analyses. Signals were digitized using an Axon Digidata1322A and sampled at 20 kHz on a Dell computer using Clampex version 8 or 9. Data analysis was done with Clampfit version 8 or 9 (Axon Instruments, Union City, Calif.), Excel 2000 (Microsoft, Seattle, Wash.), and GraphPad/Prism version 4.02 (Graphpad Software, San Diego, Calif.). Data are reported as mean±SEM. Statistical analyses were performed using two-tailed Student's t-test and one-way analysis of variance (ANOVA).
(§2) Single-barrel pipettes were pulled from borosilicate glass with an outer diameter (o.d.) and inner diameter (i.d.) of 1.5 mm and 0.86 mm, respectively (Sutter Instrument, Novato, Calif.). Pipette opening size of the single barrel was typically 2-3 μm. Double-barrel pipettes were pulled from borosilicate theta glass with an o.d. of 1.5 mm; pipette opening size was around 3-4 μm. The application pipette was usually placed within 10-15 μm of the cell soma.
(§3) In experiments in which AQA analogs were bath-applied, for each cell, four ACh baseline-evoked responses were recorded before bath application of the antagonist. ACh-evoked responses were then recorded for 13-22 min in the presence of the AQA analog. Each analog was bath-applied at a final concentration of 1 μm. In some septum experiments, dihydro-β-erythroidine (DHβE) was also bath-applied at a final concentration of 1 μm.
Neurons in rat medial septum vary in their nAChR-mediated responses. Some neurons (Type I cells) have relatively fast transient ACh-evoked responses, while others (Type II cells) have slower ACh-evoked responses (Thinschmidt et al., 2005a).

rat α7 nAChRs = molecular target: T1, rat α7 nAChRs (Rattus norvegicus, UniProt Q05941); assay: Voltage-clamp recording in Xenopus oocytes expressing rat α7 nAChRs; conditions: for Imax of ACh concentration-response in the presence of antagonist: ACh alone Imax=1; for recovery of responses to ACh alone after co-application: 5 min washout; for effect of voltage on inhibition of α7 receptors: −40 or −80 mV, 60 μM ACh; for inhibition at 1 µM: 1 μM tPyQB
T1 construct: expressed in transfected cells; host or cells: Xenopus laevis oocytes injected with subunit cRNA
Description: (§4) For recombinant nAChR studies, mature (>9 cm) female Xenopus laevis African frogs (Nasco, Ft. Atkinson, Wis.) were used as a source of oocytes. Prior to surgery, frogs were anesthetized by placing the animal in a 1.5 g/l solution of MS222 (3-aminobenzoic acid ethyl ester) for 30 min. Oocytes were removed from an incision made in the abdomen. All procedures involving frogs were approved by the University of Florida Institutional Animal Care and Use Committee (IACUC).
(§5) Stage 5 oocytes were then isolated and injected with 50 n1 (5-20 ng) each of the appropriate subunit cRNAs. The rat neuronal nAChR clones were obtained from Dr. Jim Boulter (UCLA, Los Angeles, Calif.). After linearization and purification of cloned cDNAs, RNA transcripts were prepared in vitro using the appropriate mMessage mMachine kit from Ambion (Austin, Tex.).
(§6) Experiments were conducted using OpusXpress 6000A (Molecular Devices, Union City Calif.). […] Net charge values were used to report inhibitory effects. […] Means and standard errors (SEM) were calculated from the normalized responses of at least four oocytes for each experimental concentration. Concentration-response data were fit to the Hill equation assuming negative Hill slopes.

rat α4β2 nAChRs = molecular target: T2, rat α4β2 nAChRs (Rattus norvegicus, UniProt P09483+P12390); assay: Voltage-clamp recording in Xenopus oocytes expressing rat α4β2 nAChRs; conditions: for recovery of responses to ACh alone after co-application: 5 min washout
T2 construct: expressed in transfected cells; host or cells: Xenopus laevis oocytes injected with subunit cRNAs
Description: as §4, §5, §6

rat α3β4 nAChRs = molecular target: T3, rat α3β4 nAChRs (Rattus norvegicus, UniProt P04757+P12392); assay: Voltage-clamp recording in Xenopus oocytes expressing rat α3β4 nAChRs; conditions: for recovery of responses to ACh alone after co-application: 5 min washout
T3 construct: expressed in transfected cells; host or cells: Xenopus laevis oocytes injected with subunit cRNAs
Description: as §4, §5, §6

[2] = molecular target: T4, native α7 receptors on rat hippocampal interneurons (Rattus norvegicus, UniProt Q05941); assay: Patch-clamp recording of ACh-evoked responses of hippocampal interneurons in brain slices; conditions: 1 μM bath-applied; for reduction of ACh-evoked responses: 1 mM ACh
T4 construct: Native α7 Receptors on Rat Hippocampal Interneurons; from tissue; host or cells: interneurons of CA1 stratum radiatum in fresh rat brain slices
Description: as §1, §2, §3
Stable ACh-evoked responses were obtained from hippocampal interneurons in fresh brain slices and then applied 1 μM tPyQB, tPy2PiB, or tkP3BzPB to the bath. […]

[3] = tested on: Type I cells in rat medial septum; assay: Patch-clamp recording of ACh-evoked responses of medial septal neurons, Type I cells
Description: as §1
Single-barrel pipettes were pulled from borosilicate glass with an outer diameter (o.d.) and inner diameter (i.d.) of 1.5 mm and 0.86 mm, respectively (Sutter Instrument, Novato, Calif.). […]
In experiments in which AQA analogs were bath-applied, for each cell, four ACh baseline-evoked responses were recorded before bath application of the antagonist. ACh-evoked responses were then recorded for 13-22 min in the presence of the AQA analog. […]

[4] = 1 mM ACh+300 μM tkP3BzPB pressure co-application

T3 sequence (P04757 26-499): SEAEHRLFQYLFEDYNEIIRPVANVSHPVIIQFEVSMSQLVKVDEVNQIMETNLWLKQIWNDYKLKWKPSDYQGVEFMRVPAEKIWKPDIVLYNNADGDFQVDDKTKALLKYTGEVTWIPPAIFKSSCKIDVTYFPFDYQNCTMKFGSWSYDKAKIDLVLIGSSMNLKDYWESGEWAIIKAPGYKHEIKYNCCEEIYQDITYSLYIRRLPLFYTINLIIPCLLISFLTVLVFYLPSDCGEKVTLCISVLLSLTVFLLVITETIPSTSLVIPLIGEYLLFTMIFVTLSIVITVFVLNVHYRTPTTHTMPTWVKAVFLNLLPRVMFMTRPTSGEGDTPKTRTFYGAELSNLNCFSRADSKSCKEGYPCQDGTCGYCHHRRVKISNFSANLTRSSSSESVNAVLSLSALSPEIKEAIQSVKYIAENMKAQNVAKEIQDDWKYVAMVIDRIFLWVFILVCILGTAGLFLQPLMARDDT
T3 sequence (P12392 21-495): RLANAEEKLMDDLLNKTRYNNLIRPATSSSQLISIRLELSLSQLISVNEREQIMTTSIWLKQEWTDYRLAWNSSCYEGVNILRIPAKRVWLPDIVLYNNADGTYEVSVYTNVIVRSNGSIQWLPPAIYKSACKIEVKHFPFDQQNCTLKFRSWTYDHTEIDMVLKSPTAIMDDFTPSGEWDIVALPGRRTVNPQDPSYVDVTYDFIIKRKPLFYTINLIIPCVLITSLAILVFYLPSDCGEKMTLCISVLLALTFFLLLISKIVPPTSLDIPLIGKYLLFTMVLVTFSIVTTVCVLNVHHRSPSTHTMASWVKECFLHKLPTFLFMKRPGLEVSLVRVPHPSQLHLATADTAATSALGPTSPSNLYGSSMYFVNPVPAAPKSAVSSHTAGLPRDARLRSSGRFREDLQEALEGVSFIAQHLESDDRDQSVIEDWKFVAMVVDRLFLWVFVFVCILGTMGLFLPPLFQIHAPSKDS
T4 sequence (Q05941 23-502): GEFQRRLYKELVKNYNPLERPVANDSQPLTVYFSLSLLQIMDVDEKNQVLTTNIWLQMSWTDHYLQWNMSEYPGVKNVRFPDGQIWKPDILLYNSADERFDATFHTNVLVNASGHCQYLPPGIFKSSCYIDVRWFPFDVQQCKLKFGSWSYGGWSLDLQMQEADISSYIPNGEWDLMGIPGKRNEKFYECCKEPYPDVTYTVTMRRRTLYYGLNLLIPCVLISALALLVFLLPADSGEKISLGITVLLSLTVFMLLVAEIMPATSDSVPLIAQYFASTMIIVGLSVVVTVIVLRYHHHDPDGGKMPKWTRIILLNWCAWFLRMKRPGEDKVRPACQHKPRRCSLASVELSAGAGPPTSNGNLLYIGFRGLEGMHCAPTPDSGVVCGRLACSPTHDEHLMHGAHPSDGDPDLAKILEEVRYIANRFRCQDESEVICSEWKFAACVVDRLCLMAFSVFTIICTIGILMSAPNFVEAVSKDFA
T1 sequence (Q05941 23-502): as above
T2 sequence (P09483 31-630): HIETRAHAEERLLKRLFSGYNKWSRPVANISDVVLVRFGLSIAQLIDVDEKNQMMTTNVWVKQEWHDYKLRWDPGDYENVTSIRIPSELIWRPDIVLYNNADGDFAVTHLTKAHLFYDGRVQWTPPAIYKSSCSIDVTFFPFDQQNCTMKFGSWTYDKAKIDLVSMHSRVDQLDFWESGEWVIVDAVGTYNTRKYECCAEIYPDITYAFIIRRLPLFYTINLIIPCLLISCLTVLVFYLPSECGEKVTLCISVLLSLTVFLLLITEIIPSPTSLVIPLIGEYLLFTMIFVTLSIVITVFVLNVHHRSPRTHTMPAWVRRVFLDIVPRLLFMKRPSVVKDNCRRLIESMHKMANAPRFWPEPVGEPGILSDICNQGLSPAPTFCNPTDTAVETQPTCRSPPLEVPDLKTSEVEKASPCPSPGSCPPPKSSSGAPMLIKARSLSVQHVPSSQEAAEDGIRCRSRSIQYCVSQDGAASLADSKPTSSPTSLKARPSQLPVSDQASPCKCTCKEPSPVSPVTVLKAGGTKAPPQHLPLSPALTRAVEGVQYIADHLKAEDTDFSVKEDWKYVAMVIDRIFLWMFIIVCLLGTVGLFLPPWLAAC
T2 sequence (P12390 25-500): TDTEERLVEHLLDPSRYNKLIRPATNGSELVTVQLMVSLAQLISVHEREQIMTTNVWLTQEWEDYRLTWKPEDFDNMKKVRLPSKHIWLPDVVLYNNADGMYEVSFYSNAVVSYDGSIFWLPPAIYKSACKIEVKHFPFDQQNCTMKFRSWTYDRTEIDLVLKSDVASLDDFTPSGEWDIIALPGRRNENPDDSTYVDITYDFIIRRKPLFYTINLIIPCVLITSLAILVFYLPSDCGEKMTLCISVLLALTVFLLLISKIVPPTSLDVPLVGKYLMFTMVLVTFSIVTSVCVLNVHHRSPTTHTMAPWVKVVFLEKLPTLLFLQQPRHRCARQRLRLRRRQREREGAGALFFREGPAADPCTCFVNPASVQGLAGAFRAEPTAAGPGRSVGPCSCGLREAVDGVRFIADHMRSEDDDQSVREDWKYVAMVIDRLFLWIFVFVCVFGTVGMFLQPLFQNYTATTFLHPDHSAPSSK

SMILES: CO[C@H]1CC=C2CCN3CCC4=C(CC(=O)OC4)[C@]23C1 [DHβE, dihydro-β-erythroidine, reference compound]
blockade of residual ACh-evoked responses following tkP3BzPB bath application ([1]; 1 μM DHβE bath-applied): largely sensitive to DHβE blockade

SMILES: Cc1cccc[n+]1CCCC#Cc1cc(C#CCCC[n+]2ccccc2C)cc(C#CCCC[n+]2ccccc2C)c1 [tPy2PiB, 1,3,5,-tri-{5-[1-(2-picolinium)]-pent-1-yn-1-yl}benzene tribromide]
inhibition of net charge responses (rat α7 nAChRs; 3 μM tPy2PiB, holding potential −40 mV): no significant inhibition
Imax of ACh concentration-response in the presence of antagonist (rat α7 nAChRs; 3 μM tPy2PiB, net charge): 0.84±0.02
recovery of responses to ACh alone after co-application (rat α7 nAChRs): recovered fully
IC50 (rat α7 nAChRs; read-out: IC50 values, α7): 6.3 ± 0.6 µM
inhibition at 3 µM (rat α7 nAChRs; read-out: inhibition of net charge responses, 3 μM tPy2PiB, holding potential −80 mV): 43 ± 3%
effect of voltage on inhibition of α7 receptors (rat α7 nAChRs): significant effect of voltage
IC50 (rat α4β2 nAChRs): 103 ± 25 µM
recovery of responses to ACh alone after co-application (rat α4β2 nAChRs): recovered fully
IC50 (rat α3β4 nAChRs): 10 ± 1.4 µM
recovery of responses to ACh alone after co-application (rat α3β4 nAChRs): recovered fully
reduction of ACh-evoked responses [2]: no significant reduction

SMILES: C(#Cc1cc(C#CCCC[n+]2cccc3ccccc32)cc(C#CCCC[n+]2cccc3ccccc32)c1)CCC[n+]1cccc2ccccc21 [tPyQB, 1,3,5-tri-[5-(1-quinolinum)-pent-1-yn-1-yl]-benzene tribromide]
Imax of ACh concentration-response in the presence of antagonist (rat α7 nAChRs; 300 nM tPyQB, net charge): 0.40±0.01
inhibition of 60 μM ACh-evoked responses (rat α7 nAChRs; 1 μM): completely inhibit
inhibition at 1 µM (rat α7 nAChRs; cells held at −40 mV): 83 ± 2%
inhibition at 1 µM (rat α7 nAChRs; −80 mV): 97.7 ± 0.1%
recovery of responses to ACh alone after co-application (rat α7 nAChRs): recovered fully
IC50 (rat α7 nAChRs; read-out: IC50 values, α7): 0.13 ± 0.02 µM
effect of voltage on inhibition of α7 receptors (rat α7 nAChRs): significant effect of voltage
IC50 (rat α4β2 nAChRs): 4.1 ± 1 µM
recovery of responses to ACh alone after co-application (rat α4β2 nAChRs): recovered fully
IC50 (rat α3β4 nAChRs): 1 ± 0.1 µM
recovery of responses to ACh alone after co-application (rat α3β4 nAChRs): recovered fully
reduction of ACh-evoked responses [2]: effectively reduced

inhibition of 60 μM ACh-evoked responses (rat α7 nAChRs; 100 nM, typical co-application protocol): virtually no inhibition
use-dependence of persistent inhibition (rat α7 nAChRs; 3 μM for 20 s with or without 60 μM ACh, 5 minute washout): not use-dependent
recovery time constant (rat α7 nAChRs; after 1 μM co-applied with 60 μM ACh): 26.6 ± 0.8 min
IC50 (rat α7 nAChRs; after 5 minutes wash following application at increasing concentrations, read-out: IC50 estimated for recovery data): 1.9 ± 0.7 µM
time constant of recovery (rat α7 nAChRs; after application of 3 μM alone, repeated applications of 60 μM ACh): 76 ± 3 min
inhibition at 0.1 µM (rat α7 nAChRs; read-out: inhibition of the ACh-evoked responses): ~80%
IC50 (rat α7 nAChRs; simple co-application with 60 μM ACh, net charge, read-out: IC50 values, α7): 1 ± 0.1 µM
effect of voltage on inhibition of α7 receptors (rat α7 nAChRs): no significant difference
IC50 (rat α4β2 nAChRs): 48 ± 11 µM
recovery of responses to ACh alone after co-application (rat α4β2 nAChRs): no significant residual inhibition
IC50 (rat α3β4 nAChRs): 9.2 ± 1.2 µM
recovery of responses to ACh alone after co-application (rat α3β4 nAChRs): no significant residual inhibition
reduction of ACh-evoked responses [2]: effectively reduced
baseline net charge response remaining after bath application ([2]; 1 mM ACh pressure application): 0.4±0.7%
baseline peak response remaining after bath application ([2]; 1 mM ACh pressure application): 4±0.2%
SMILES: c1ccc(Cc2ccc[n+](CCCCCc3cc(CCCCC[n+]4cccc(Cc5ccccc5)c4)c(CCCCC[n+]4cccc(Cc5ccccc5)c4)cc3CCCCC[n+]3cccc(Cc4ccccc4)c3)c2)cc1 [tkP3BzPB, 1,2,4,5-tetra-{5-[1-(3-benzyl)pyridinium]pent-1-yl}benzenetetrabromide]
recovery of responses to ACh alone after co-application (rat α7 nAChRs): decreasing recovery with increasing tkP3BzPB concentrations
initial evoked response remaining (peak amplitude) after bath application ([3]; 1 μM bath-applied): 12±0.6%
net-charge evoked response after bath application ([3]; 1 μM bath-applied): fully abolished
average baseline net charge response after co-application [3, 4]: 68±9%
average baseline peak response after co-application [3, 4]: 72±6%
baseline response (peak amplitude) at the end of the application ([1]; 1 μM bath-applied): 59±1%
net-charge evoked response, of the baseline response, after bath application ([1]; 1 μM bath-applied): 79±2%
average baseline net charge response after co-application [1, 4]: 93±10%
average baseline peak response after co-application [1, 4]: 86±5%
